The source of these data is patent publication US7994185B2, “Benzene sulfonamide thiazole and oxazole compounds” (Glaxo Smith Kline LLC, priority 2008, dated 2011).

The subject of assay [1] is Human melanoma cancer cells (SK-MEL-28). Put plainly: Cell growth inhibition assay (CellTiter-Glo), SK-MEL-28. The class given is cell-based.
Assay [2] has as its target T1, BRAFV600E full-length (amino acids 2-766) (Homo sapiens, UniProt P15056, V600E).
T1 construct: His6-tagged BRAFV600E full-length (amino acids 2-766); His6; made in house; host or cells: baculovirus expression system (insect cells)
Put plainly: B-Raf Accelerated MEK ATPase assay (BRAMA). Particulars: categorized. The class given is biochemical. In outline:
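Coupled-enzyme readout: ADP generated by MEK-mediated ATP hydrolysis, uncoupled from ERK phosphorylation, is linked to NADH oxidation through pyruvate kinase and lactate dehydrogenase.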

Assay [3] has as its system Human colon tumor cells (Colo205). Put plainly: Cell growth inhibition assay (CellTiter-Glo), Colo205. The class given is cell-based. The method in brief:
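Luminescent ATP read-out (CellTiter-Glo) served as a proxy for cell number; percent growth inhibition was calculated against DMSO vehicle wells. Cells were treated for 3 days at 37 °C with serially diluted compound, 0.2% DMSO final.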
(ATP-based viability assays read luminescence as a measure of living cells.)

Setting [4] is: SK-MEL-28, 72 h, Table 3a, 3 days incubation, read-out: Activity in SK-MEL-28 Tumor Cells.
Where [5] appears, read: SK-MEL-28, Table 3b, later runs, average for the one or more runs, categorized, read-out: IC50 for SK-MEL-28.
[6] abbreviates: B-Raf Activity, Table 1a, highest pIC50 for the one or more runs.
The mark [7] stands for this setting: B-Raf pIC50, Table 1b, later runs, average pIC50 for the one or more runs.
Where [8] appears, read: COLO 205, 72 h, Table 2a, 3 days incubation, read-out: Activity in Colo205 Tumor Cells.
Where [9] appears, read: COLO 205, Table 2b, later runs, average for the one or more runs, categorized, read-out: IC50 for Colo205.
The mark [10] stands for this setting: Table 1b, later runs, average pIC50 for the one or more runs, read-out: B-Raf pIC50 (converted).

Read-outs that look alike come from different tables or passages of the source. Bounds are passed on as bounds.

T1 sequence (P15056 2-766 V600E): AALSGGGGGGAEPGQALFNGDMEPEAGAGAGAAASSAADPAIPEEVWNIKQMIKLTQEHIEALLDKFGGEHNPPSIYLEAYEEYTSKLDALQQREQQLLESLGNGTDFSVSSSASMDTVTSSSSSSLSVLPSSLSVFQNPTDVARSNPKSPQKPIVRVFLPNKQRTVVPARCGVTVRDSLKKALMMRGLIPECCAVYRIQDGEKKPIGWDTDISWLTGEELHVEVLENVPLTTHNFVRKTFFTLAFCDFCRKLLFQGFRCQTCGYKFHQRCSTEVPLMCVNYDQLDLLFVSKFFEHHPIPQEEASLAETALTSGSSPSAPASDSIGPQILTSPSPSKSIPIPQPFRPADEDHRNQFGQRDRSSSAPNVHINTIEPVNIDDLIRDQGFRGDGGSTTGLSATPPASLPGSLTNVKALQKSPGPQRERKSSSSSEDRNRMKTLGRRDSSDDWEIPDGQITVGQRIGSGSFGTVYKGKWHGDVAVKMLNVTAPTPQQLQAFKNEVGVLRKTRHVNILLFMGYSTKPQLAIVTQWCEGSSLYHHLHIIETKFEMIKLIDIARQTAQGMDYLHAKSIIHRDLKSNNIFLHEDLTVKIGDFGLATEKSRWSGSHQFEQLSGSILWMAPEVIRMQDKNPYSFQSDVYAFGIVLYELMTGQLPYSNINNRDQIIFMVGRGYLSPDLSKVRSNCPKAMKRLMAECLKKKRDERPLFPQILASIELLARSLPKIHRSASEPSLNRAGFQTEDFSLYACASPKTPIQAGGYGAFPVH

In the case of `CC(C)c1nc(-c2cccc(NS(=O)(=O)c3cccs3)c2)c(-c2ccnc(NCCS(C)(=O)=O)n2)s1` [Example 31, N-{3-[2-(1-Methylethyl)-5-(2-{[2-(methylsulfonyl)ethyl]amino}-4-pyrimidinyl)-1,3-thiazol-4-yl]phenyl}-2-thiophenesulfonamide], the IC50 was under 100 nM in assay [1] (setting [4]); under 100 nM in assay [1] (setting [5]); under 100 nM in assay [2] (setting [6]); at most 3.16 nM in assay [2] (setting [7]); under 100 nM in assay [3] (setting [8]); under 100 nM in assay [3] (setting [9]).
For the compound `CC(C)CNc1nccc(-c2sc(C(C)C)nc2-c2cccc(NS(=O)(=O)c3c(F)cccc3F)c2F)n1` [Example 176], the IC50 in assay [1] (setting [4]) is under 100 nM; in assay [1] (setting [5]), under 100 nM; in assay [2] (setting [6]), under 100 nM; in assay [2] (setting [7]), at most 3.16 nM; in assay [3] (setting [8]) it was under 100 nM; in assay [3] (setting [9]), under 100 nM.
Regarding `CCNc1nccc(-c2sc(C(C)C)nc2-c2ccc(F)c(NS(=O)(=O)c3c(F)cccc3F)c2)n1` [Example 9, N-{5-[5-[2-(Ethylamino)-4-pyrimidinyl]-2-(1-methylethyl)-1,3-thiazol-4-yl]-2-fluorophenyl}-2,6-difluorobenzenesulfonamide], the IC50 is over 1000 nM in assay [1] (setting [4]); 1000 to 10000 nM in assay [1] (setting [5]); 100 to 1000 nM in assay [2] (setting [6]); 31.6 to 1000 nM in assay [2] (setting [7]); over 1000 nM in assay [3] (setting [8]); 1000 to 10000 nM in assay [3] (setting [9]).
Regarding `Cc1nccc(-c2sc(C(C)(C)C)nc2-c2c(F)ccc(NS(=O)(=O)c3cc(F)ccc3F)c2F)n1` [Example 262, N-{3-[2-(1,1-dimethylethyl)-5-(2-methyl-4-pyrimidinyl)-1,3-thiazol-4-yl]-2,4-difluorophenyl}-2,5-difluorobenzenesulfonamide], the IC50 in assay [1] (setting [5]) was under 100 nM; in assay [2] (setting [7]) it was at most 3.16 nM; in assay [3] (setting [9]), under 100 nM.
Regarding `CS(=O)(=O)N1CCC(Nc2nccc(-c3sc(C4CCC4)nc3-c3ccc(F)c(NS(=O)(=O)c4cc(F)ccc4F)c3)n2)CC1` [Example 80, N-{5-[2-Cyclobutyl-5-(2-{[1-(methylsulfonyl)-4-piperidinyl]amino}-4-pyrimidinyl)-1,3-thiazol-4-yl]-2-fluorophenyl}-2,5-difluorobenzenesulfonamide], the IC50 in assay [1] (setting [4]) is 100 to 1000 nM; in assay [1] (setting [5]) it was 100 to 1000 nM; in assay [2] (setting [6]), under 100 nM; in assay [2] (setting [10]), 3.16 to 31.6 nM; in assay [3] (setting [8]) it was 100 to 1000 nM; in assay [3] (setting [9]), 100 to 1000 nM.
Consider `COCCCNc1nccc(-c2sc(C(C)(C)C)nc2-c2cccc(NS(=O)(=O)c3cc(F)ccc3F)c2F)n1` [Example 211], for which the IC50 in assay [1] (setting [4]) was under 100 nM; in assay [1] (setting [5]) it was under 100 nM; in assay [2] (setting [6]), under 100 nM; in assay [2] (setting [7]), at most 3.16 nM; in assay [3] (setting [8]), under 100 nM; in assay [3] (setting [9]), under 100 nM.
In the case of `CC(C)c1nc(-c2ccc(F)c(NS(=O)(=O)c3cc(F)ccc3F)c2)c(-c2ccnc(NC3CCOCC3)n2)s1` [Example 76, 2,5-Difluoro-N-(2-fluoro-5-{2-(1-methylethyl)-5-[2-(tetrahydro-2H-pyran-4-ylamino)-4-pyrimidinyl]-1,3-thiazol-4-yl}phenyl)benzenesulfonamide], the IC50 in assay [1] (setting [4]) was 100 to 1000 nM; in assay [1] (setting [5]), 100 to 1000 nM; in assay [2] (setting [6]), under 100 nM; in assay [2] (setting [10]), 3.16 to 31.6 nM; in assay [3] (setting [8]), 100 to 1000 nM; in assay [3] (setting [9]), 100 to 1000 nM.
For the compound `CC(C)(O)CCc1nccc(-c2sc(N3CCOCC3)nc2-c2cccc(NS(=O)(=O)c3cc(F)ccc3F)c2F)n1` [Example 248, 2,5-difluoro-N-{2-fluoro-3-[5-[2-(3-hydroxy-3-methylbutyl)-4-pyrimidinyl]-2-(4-morpholinyl)-1,3-thiazol-4-yl]phenyl}benzenesulfonamide], the figures for the IC50 in assay [1] (setting [5]), in assay [2] (setting [10]) and in assay [3] (setting [9]) were under 100 nM, 3.16 to 31.6 nM and under 100 nM, respectively.
For `Nc1nccc(-c2sc(N3CCOCC3)nc2-c2cccc(NS(=O)(=O)c3ccoc3)c2F)n1` [Example 267, N-{3-[5-(2-amino-4-pyrimidinyl)-2-(4-morpholinyl)-1,3-thiazol-4-yl]-2-fluorophenyl}-3-furansulfonamide], the results for the IC50 in assay [1] (setting [5]), in assay [2] (setting [7]) and in assay [3] (setting [9]) were 100 to 1000 nM, at most 3.16 nM and 100 to 1000 nM, respectively.
On to `CC(C)(C)OC(=O)NCCNc1nccc(-c2sc(C(C)(C)C)nc2-c2cccc(NS(=O)(=O)c3cc(F)ccc3F)c2F)n1` [Example 198], for which the IC50 in assay [1] (setting [4]) is 100 to 1000 nM; in assay [1] (setting [5]), 100 to 1000 nM; in assay [2] (setting [6]), under 100 nM; in assay [2] (setting [7]) it was at most 3.16 nM; in assay [3] (setting [8]), 100 to 1000 nM; in assay [3] (setting [9]) it was 100 to 1000 nM.
`CS(=O)(=O)CCNc1nccc(-c2sc(N3CCOCC3)nc2-c2ccc(F)c(NS(=O)(=O)c3c(F)cccc3F)c2)n1` [Example 202]: the IC50 in assay [1] (setting [4]) was 100 to 1000 nM; in assay [1] (setting [5]), 100 to 1000 nM; in assay [2] (setting [6]) it was under 100 nM; in assay [2] (setting [7]), 31.6 to 1000 nM; in assay [3] (setting [8]), over 1000 nM; in assay [3] (setting [9]), 1000 to 10000 nM.
For the compound `Cc1ccc(F)cc1S(=O)(=O)Nc1cccc(-c2nc(C(C)(C)C)sc2-c2ccnc(N)n2)c1F` [Example 53, N-{3-[5-(2-Amino-4-pyrimidinyl)-2-(1,1-dimethylethyl)-1,3-thiazol-4-yl]-2-fluorophenyl}-5-fluoro-2-methylbenzenesulfonamide], the IC50 in assay [1] (setting [4]) is under 100 nM; in assay [1] (setting [5]), under 100 nM; in assay [2] (setting [6]), under 100 nM; in assay [2] (setting [10]), 3.16 to 31.6 nM; in assay [3] (setting [8]) it was under 100 nM; in assay [3] (setting [9]), under 100 nM.
On to `CS(=O)(=O)N1CCN(c2nc(-c3cccc(NS(=O)(=O)c4cc(F)ccc4F)c3F)c(-c3ccnc(N)n3)s2)CC1` [Example 99, N-(3-{5-(2-Amino-4-pyrimidinyl)-2-[4-(methylsulfonyl)-1-piperazinyl]-1,3-thiazol-4-yl}-2-fluorophenyl)-2,5-difluorobenzenesulfonamide], for which the IC50 in assay [1] (setting [4]) was 100 to 1000 nM; in assay [1] (setting [5]) it was 100 to 1000 nM; in assay [2] (setting [6]), under 100 nM; in assay [2] (setting [7]), at most 3.16 nM; in assay [3] (setting [8]), 100 to 1000 nM; in assay [3] (setting [9]), 100 to 1000 nM.
`CS(=O)(=O)N1CCC(Nc2nccc(-c3sc(N4CCOCC4)nc3-c3cccc(NS(=O)(=O)c4ccco4)c3F)n2)CC1` [Example 41, N-{2-Fluoro-3-[5-(2-{[1-(methylsulfonyl)-4-piperidinyl]amino}-4-pyrimidinyl)-2-(4-morpholinyl)-1,3-thiazol-4-yl]phenyl}-2-furansulfonamide]: the IC50 in assay [1] (setting [4]) is under 100 nM; in assay [1] (setting [5]), 100 to 1000 nM; in assay [2] (setting [6]), under 100 nM; in assay [2] (setting [7]), at most 3.16 nM; in assay [3] (setting [8]), under 100 nM; in assay [3] (setting [9]) it was under 100 nM.
Regarding `CC(C)CNc1nccc(-c2scnc2-c2cccc(NS(=O)(=O)c3c(F)cccc3F)c2)n1` [Example 115, 2,6-Difluoro-N-[3-(5-{2-[(2-methylpropyl)amino]-4-pyrimidinyl}-1,3-thiazol-4-yl)phenyl]benzenesulfonamide], the IC50 in assay [1] (setting [4]) was over 1000 nM; in assay [1] (setting [5]), 1000 to 10000 nM; in assay [2] (setting [6]) it was over 1000 nM; in assay [2] (setting [10]), 3.16 to 31.6 nM; in assay [3] (setting [8]), over 1000 nM; in assay [3] (setting [9]) it was 1000 to 10000 nM.
As for `Nc1nccc(-c2sc(N3CCOCC3)nc2-c2cccc(NS(=O)(=O)c3c(F)cccc3F)c2Cl)n1` [Example 21, N-{3-[5-(2-Amino-4-pyrimidinyl)-2-(4-morpholinyl)-1,3-thiazol-4-yl]-2-chlorophenyl}-2,6-difluorobenzenesulfonamide], the IC50 in assay [1] (setting [4]) is 100 to 1000 nM; in assay [1] (setting [5]) it was 100 to 1000 nM; in assay [2] (setting [6]) it was under 100 nM; in assay [2] (setting [7]) it was at most 3.16 nM; in assay [3] (setting [8]) it was 100 to 1000 nM; in assay [3] (setting [9]), 100 to 1000 nM.
For `CC(C)CNc1nccc(-c2sc(C(C)C)nc2-c2ccc(F)c(NS(=O)(=O)c3cc(F)ccc3F)c2)n1` [Example 121], the IC50 in assay [1] (setting [4]) was 100 to 1000 nM; in assay [1] (setting [5]), 100 to 1000 nM; in assay [2] (setting [6]), under 100 nM; in assay [2] (setting [10]), 3.16 to 31.6 nM; in assay [3] (setting [8]), 100 to 1000 nM; in assay [3] (setting [9]) it was 100 to 1000 nM.
As for `CC(=O)NCCNc1nccc(-c2sc(C(C)C)nc2-c2ccc(F)c(NS(=O)(=O)c3c(F)cccc3F)c2)n1` [Example 183], the IC50 was over 1000 nM in assay [1] (setting [4]); 1000 to 10000 nM in assay [1] (setting [5]); under 100 nM in assay [2] (setting [6]); 31.6 to 1000 nM in assay [2] (setting [7]); over 1000 nM in assay [3] (setting [8]); 1000 to 10000 nM in assay [3] (setting [9]).
As to `CC(C)c1nc(-c2ccc(F)c(NS(=O)(=O)c3cc(F)ccc3F)c2)c(-c2ccnc(NCC3CCN(C(=O)OC(C)(C)C)CC3)n2)s1` [Example 127], the IC50 was over 1000 nM in assay [1] (setting [4]); 1000 to 10000 nM in assay [1] (setting [5]); under 100 nM in assay [2] (setting [6]); 31.6 to 1000 nM in assay [2] (setting [7]); over 1000 nM in assay [3] (setting [8]); 1000 to 10000 nM in assay [3] (setting [9]).
Take `Cc1nccc(-c2sc(C(C)(C)C)nc2-c2cccc(NS(=O)(=O)c3ccccc3F)c2F)n1` [Example 225, N-{3-[2-(1,1-dimethylethyl)-5-(2-methyl-4-pyrimidinyl)-1,3-thiazol-4-yl]-2-fluorophenyl}-2-fluorobenzenesulfonamide]: the IC50 in assay [1] (setting [5]) was under 100 nM; in assay [2] (setting [10]), 3.16 to 31.6 nM; in assay [3] (setting [9]), under 100 nM.
